Source: ChEMBL document CHEMBL1201862, “PubChem BioAssay data set” (2004)
Active and inactive are the calls of the source.

Experiments:
[1] = inhibitors of intracellular T. cruzi replication, confirmation, NIH3T3 host cells, beta-gal luminescence (AID 2044); format: functional, cell-based;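 also: intracellular parasites grown in NIH/3T3 mouse fibroblasts as host cells; luminescent beta-galactosidase reporter signal from transgenic T. cruzi replicating inside host cells; inhibitors lower the luminescence signal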
[2] = cytotoxicity toward NIH3T3 fibroblasts, dose response, counter-screen, cell-based, ATP luminescence, mouse fibroblasts (AID 2010); format: functional;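 also: cells exposed to compound for about 90 hours before reading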
[3] = target: T1, Voltage-dependent T-type calcium channel subunit alpha-1H (Homo sapiens, UniProt O95180); format: functional
T1 sequence (O95180 whole entry): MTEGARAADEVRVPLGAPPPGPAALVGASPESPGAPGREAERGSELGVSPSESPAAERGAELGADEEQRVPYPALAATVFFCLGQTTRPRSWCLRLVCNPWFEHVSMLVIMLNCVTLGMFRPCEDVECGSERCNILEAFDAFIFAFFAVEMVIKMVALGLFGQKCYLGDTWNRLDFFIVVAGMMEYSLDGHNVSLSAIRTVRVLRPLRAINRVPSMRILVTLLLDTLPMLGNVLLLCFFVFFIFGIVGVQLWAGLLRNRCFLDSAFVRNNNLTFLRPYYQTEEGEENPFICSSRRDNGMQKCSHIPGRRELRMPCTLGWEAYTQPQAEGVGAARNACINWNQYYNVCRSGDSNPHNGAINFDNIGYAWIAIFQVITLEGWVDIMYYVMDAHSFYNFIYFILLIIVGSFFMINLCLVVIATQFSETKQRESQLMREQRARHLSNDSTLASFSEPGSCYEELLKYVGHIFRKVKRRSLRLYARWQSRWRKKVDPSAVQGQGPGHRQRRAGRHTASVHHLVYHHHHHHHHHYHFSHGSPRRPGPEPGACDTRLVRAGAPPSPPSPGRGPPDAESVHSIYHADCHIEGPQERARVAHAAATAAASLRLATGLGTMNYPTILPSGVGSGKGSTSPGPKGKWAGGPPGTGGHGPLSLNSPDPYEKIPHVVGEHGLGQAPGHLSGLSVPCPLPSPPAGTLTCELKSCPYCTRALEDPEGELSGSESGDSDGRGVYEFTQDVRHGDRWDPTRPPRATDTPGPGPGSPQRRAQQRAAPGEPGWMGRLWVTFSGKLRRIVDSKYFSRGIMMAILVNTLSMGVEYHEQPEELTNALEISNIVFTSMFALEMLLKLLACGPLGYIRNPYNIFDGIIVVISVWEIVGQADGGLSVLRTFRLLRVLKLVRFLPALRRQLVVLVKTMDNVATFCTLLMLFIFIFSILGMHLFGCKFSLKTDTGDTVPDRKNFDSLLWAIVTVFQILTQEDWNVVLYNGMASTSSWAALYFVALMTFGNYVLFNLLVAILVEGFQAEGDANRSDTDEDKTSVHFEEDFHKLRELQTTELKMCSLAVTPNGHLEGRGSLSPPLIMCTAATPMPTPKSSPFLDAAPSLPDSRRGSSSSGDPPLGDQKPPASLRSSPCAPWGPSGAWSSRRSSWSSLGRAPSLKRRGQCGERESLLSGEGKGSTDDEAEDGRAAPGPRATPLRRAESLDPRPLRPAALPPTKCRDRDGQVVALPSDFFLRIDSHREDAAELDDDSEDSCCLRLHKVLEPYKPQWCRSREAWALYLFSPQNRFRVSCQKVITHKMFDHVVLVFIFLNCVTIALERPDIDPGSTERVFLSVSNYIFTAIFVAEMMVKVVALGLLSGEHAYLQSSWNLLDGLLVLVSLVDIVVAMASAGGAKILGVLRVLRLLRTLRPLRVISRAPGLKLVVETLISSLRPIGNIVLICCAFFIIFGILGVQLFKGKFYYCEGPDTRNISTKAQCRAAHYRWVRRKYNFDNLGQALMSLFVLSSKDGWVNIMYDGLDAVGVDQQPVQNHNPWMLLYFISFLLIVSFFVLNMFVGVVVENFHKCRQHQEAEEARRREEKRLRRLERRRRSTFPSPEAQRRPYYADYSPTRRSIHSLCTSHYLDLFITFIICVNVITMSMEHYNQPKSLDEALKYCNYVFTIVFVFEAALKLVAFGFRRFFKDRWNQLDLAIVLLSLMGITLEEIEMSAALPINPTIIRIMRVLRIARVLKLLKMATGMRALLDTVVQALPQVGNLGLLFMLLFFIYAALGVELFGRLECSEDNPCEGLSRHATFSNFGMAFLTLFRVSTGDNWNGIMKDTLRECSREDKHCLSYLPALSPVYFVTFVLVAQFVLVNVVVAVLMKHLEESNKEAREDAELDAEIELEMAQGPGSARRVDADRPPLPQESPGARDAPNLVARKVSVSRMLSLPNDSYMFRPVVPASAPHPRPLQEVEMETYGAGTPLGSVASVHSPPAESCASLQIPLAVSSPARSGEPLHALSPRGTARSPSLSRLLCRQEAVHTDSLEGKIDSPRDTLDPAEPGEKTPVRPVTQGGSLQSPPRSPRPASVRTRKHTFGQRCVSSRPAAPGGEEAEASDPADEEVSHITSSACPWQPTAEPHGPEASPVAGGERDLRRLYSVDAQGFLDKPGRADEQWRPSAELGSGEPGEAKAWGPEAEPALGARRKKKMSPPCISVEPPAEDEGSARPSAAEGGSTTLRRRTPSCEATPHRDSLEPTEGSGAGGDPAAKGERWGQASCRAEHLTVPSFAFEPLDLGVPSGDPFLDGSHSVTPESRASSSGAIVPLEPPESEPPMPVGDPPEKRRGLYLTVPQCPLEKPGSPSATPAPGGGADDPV

[4] = target: T1, Voltage-dependent T-type calcium channel subunit alpha-1H; assay: Inhibitors of T-Type Calcium Channels. [Related pubchem assays (depositor defined):AID449739, AID463087, AID489005, AID493041, AID504579, AID504584, AID504619, AID504628]; format: functional
[5] = target: T2, Corticotropin-releasing factor receptor 2/Corticotropin-releasing factor-binding protein (Homo sapiens, UniProt P24387+Q13324); assay: activators of CRF receptor 2 with binding protein – uHTS hits, confirmation (AID 602473); format: functional; conditions: read-out: EC50_Mean
T2 sequence (Q13324 whole entry): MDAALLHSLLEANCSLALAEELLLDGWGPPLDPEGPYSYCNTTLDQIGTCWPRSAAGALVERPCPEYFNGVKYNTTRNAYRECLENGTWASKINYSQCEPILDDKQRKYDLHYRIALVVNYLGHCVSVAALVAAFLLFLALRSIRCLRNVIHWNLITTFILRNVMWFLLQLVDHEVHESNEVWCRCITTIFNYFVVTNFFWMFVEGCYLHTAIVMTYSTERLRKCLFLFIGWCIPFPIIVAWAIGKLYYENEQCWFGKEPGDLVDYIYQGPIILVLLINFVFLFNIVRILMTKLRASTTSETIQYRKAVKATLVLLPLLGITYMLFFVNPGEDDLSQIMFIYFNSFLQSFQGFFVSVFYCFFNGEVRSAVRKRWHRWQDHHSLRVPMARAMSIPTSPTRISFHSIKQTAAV
T2 sequence (P24387 whole entry): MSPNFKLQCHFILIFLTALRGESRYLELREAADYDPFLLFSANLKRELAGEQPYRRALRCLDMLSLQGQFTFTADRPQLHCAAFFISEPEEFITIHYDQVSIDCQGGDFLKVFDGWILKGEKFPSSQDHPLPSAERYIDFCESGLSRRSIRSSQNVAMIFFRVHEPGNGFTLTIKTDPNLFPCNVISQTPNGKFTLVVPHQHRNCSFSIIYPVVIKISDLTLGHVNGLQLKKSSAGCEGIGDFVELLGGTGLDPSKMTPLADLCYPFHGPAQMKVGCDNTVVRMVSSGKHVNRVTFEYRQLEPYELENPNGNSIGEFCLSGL

Caspase-7 = Caspase-7 (Homo sapiens, UniProt P55210); assay: procaspase-7 activators, dose response, dual procaspase-3/-7 activator project, biochemical, absorbance, human (AID 504330)
[6] = Counterscreen for IDE inhibitors: Luminescence-based cell-based high throughput dose response assay to identify compounds that are cytotoxic to HEK cells. [Related pubchem assays: 434962 (Primary screen (IDE inhibitors in singlicate)), 449730 (Counterscreen (Cytotoxicity in triplicate)), 435028 (Confirmation (IDE inhibitors in triplicate)) …; format: functional; conditions: HEK293
Insulin-degrading enzyme = target: T3, Insulin-degrading enzyme (Homo sapiens, UniProt P14735); assay: Dose Response: Fluorescence polarization-based cell-based high throughput dose response assay for inhibitors of insulin-degrading enzyme (IDE). [Related pubchem assays: 434962 (Primary screen (IDE inhibitors in singlicate)), 449730 (Counterscreen (Cytotoxicity in triplicate)), 435028 (Confirmation (IDE inhibitors in triplicate)), 434984 (Summary …; format: functional
T3 sequence (P14735 whole entry): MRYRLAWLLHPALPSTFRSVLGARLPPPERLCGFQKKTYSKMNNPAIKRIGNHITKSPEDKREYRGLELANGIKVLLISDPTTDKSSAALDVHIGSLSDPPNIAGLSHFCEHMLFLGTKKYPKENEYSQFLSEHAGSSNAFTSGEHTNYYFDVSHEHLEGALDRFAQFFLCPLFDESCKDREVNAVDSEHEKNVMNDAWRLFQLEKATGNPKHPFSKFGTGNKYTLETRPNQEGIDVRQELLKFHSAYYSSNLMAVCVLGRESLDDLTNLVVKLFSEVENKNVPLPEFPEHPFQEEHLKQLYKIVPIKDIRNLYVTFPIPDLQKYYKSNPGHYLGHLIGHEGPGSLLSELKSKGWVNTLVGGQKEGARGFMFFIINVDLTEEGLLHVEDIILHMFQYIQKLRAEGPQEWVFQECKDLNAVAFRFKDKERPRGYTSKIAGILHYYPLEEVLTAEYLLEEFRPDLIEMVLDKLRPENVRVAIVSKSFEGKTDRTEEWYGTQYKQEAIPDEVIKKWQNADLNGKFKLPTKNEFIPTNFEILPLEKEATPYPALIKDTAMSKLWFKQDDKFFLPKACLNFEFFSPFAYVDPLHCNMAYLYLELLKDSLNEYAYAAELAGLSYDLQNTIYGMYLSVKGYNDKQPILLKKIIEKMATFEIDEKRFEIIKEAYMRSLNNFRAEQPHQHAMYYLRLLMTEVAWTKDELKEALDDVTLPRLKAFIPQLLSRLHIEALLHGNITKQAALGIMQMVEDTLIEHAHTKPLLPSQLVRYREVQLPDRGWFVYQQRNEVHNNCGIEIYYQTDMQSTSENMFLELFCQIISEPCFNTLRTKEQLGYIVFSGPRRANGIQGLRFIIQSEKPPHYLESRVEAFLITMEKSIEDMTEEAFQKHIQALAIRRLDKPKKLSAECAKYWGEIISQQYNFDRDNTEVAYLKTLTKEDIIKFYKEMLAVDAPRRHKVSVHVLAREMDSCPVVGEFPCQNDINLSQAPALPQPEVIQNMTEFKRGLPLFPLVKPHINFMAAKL

Caspase-3 = target: T4, Caspase-3 (Homo sapiens, UniProt P42574); assay: procaspase-3 activation potency of dual hits, dose response, counter-screen for dual procaspase-3/7 activator project, biochemical, absorbance, PC-3 D3A mutant (AID 504328)
T4 sequence (P42574 whole entry): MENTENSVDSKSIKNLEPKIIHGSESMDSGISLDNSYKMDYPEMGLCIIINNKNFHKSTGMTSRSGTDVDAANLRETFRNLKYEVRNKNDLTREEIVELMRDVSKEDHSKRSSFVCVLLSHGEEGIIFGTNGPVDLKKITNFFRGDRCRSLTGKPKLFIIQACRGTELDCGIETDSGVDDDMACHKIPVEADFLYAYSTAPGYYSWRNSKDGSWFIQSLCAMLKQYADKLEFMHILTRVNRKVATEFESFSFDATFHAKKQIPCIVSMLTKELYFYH

BJ [7] = assay: cytotoxicity toward BJ-TERT fibroblasts, dose response, cell-based, RAS-independent, luminescence (AID 1933); format: functional; conditions: Homo sapiens
BJ [8] = assay: cells; format: functional, cell-based; conditions: Homo sapiens
[9] = target: T5, Eukaryotic translation initiation factor 2-alpha kinase 3 (Homo sapiens, UniProt Q9NZJ5); assay: Dose response cell-based high-throughput screening assay to measure PERK inhibition. [Related pubchem assays: 1416 ]; format: functional
T5 sequence (Q9NZJ5 whole entry): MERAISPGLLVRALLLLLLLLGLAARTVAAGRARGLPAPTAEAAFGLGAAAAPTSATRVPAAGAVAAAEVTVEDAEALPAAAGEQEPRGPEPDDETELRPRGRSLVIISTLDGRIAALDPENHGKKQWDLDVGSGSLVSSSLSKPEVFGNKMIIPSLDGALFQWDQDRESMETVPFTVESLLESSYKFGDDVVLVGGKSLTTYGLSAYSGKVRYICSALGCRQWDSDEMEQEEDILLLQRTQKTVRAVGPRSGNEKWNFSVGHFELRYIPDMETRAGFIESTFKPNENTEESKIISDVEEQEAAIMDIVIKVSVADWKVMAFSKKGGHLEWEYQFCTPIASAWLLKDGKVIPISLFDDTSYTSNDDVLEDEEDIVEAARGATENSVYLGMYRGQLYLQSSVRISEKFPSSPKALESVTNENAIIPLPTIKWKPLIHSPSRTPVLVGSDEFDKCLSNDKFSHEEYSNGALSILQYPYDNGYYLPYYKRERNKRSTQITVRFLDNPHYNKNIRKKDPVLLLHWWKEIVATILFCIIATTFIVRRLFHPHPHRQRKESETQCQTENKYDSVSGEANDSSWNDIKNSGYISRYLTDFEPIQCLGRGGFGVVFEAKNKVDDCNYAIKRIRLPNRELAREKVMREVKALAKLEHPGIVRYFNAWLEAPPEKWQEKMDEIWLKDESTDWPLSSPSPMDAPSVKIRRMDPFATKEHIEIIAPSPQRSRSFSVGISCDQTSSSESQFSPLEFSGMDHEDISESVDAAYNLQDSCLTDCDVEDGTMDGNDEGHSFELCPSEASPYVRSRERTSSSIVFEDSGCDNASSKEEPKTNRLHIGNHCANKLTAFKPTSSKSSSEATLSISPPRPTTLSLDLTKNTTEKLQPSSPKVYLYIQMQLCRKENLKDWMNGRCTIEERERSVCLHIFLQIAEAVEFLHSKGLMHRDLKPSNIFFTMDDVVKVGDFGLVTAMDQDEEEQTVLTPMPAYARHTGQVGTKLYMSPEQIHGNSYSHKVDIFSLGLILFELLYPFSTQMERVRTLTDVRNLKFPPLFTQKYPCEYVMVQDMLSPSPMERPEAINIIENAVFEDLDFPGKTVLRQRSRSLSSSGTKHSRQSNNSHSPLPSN

[10] = target: T5, Eukaryotic translation initiation factor 2-alpha kinase 3; assay: Counterscreen assay for PERK inhibitors: Dose response cell-based high throughput screening assay to measure inhibition of PERK at 6 hours. [Related pubchem assays: 1522, 1416 ]; format: functional
Galanin receptor type 3 = target: T6, Galanin receptor type 3 (Homo sapiens, UniProt O60755); assay: Fluorescence-based cell-based primary high throughput dose response assay to identify antagonists of the Galanin Receptor 3 (GalR3).; format: functional
T6 sequence (O60755 whole entry): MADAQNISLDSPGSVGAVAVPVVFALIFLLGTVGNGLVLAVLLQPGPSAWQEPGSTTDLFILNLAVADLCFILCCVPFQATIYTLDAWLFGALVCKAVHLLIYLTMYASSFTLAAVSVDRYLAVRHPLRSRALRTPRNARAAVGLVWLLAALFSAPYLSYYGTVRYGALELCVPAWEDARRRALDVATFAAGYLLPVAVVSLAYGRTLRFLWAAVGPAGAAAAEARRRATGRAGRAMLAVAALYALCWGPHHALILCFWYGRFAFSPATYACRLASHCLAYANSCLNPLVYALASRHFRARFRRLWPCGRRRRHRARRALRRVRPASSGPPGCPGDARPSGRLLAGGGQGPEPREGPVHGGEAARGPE

cells = format: functional, cell-based; conditions: HEK-CNG
[11] = target: Cyclin-dependent kinase 5/CDK5 activator 1 (Homo sapiens, UniProt Q00535); assay: CDK5/p35 kinase inhibitors, dose response, biochemical, cherry-picked samples, set 2 (AID 504545)
Sequence of Cyclin-dependent kinase 5/CDK5 activator 1 (Q00535 whole entry): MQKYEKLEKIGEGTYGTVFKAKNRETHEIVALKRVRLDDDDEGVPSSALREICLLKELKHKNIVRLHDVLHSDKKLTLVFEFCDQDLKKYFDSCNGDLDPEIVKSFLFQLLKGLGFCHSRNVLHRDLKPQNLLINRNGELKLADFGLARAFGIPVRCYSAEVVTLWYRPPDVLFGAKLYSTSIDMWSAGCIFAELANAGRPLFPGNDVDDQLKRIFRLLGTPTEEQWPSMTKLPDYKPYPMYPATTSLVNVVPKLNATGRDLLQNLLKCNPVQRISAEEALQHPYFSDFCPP
Sequence of Cyclin-dependent kinase 5/CDK5 activator 1 (Q15078 whole entry, further chain): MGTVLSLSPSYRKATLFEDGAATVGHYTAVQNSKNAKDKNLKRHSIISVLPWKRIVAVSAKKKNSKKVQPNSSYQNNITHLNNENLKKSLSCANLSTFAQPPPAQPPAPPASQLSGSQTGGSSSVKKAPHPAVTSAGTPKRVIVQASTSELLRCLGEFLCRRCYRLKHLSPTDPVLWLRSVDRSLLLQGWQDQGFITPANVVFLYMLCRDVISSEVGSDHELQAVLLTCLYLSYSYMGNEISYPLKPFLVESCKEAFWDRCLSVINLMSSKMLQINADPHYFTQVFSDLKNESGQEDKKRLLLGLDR

BJ [12] = assay: cytotoxicity toward BJ-TERT-LT-ST fibroblasts, dose response, cell-based, RAS-independent, luminescence (AID 1935); format: functional; conditions: Homo sapiens;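 also: BJ fibroblasts immortalized with TERT plus LT and ST oncogenes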
[13] = cytotoxicity toward DRD oncogenic fibroblasts, dose response, cell-based, non-viral oncogenic, luminescence (AID 1934); format: functional; conditions: Homo sapiens
[14] = target: T7, Voltage-gated N-type calcium channel alpha-1B subunit/Amyloid beta A4 precursor protein-binding family A member 1 (Homo sapiens, UniProt Q00975+Q02410); assay: disruptors of Mint-PDZ/N-type channel peptide interaction – biochemical, HTRF, SAR follow-up (AID 2489); format: functional
[15] = target: T7, Voltage-gated N-type calcium channel alpha-1B subunit/Amyloid beta A4 precursor protein-binding family A member 1; assay: disruptors of Mint-PDZ/N-type channel peptide interaction – biochemical, HTRF, set 2, SAR follow-up (AID 434980); format: functional
SUMO E1/E2 = SUMO E1/E2 (Homo sapiens, UniProt P63279+Q9UBE0+Q9UBT2); assay: SAR analysis of SUMOylation using HTRF in an in-Vitro dose response assay. [Related pubchem assays (depositor defined):AID2006, AID2011, AID2018, AID2069, AID2658]; format: functional
Sequence of SUMO E1/E2 (Q9UBE0 whole entry): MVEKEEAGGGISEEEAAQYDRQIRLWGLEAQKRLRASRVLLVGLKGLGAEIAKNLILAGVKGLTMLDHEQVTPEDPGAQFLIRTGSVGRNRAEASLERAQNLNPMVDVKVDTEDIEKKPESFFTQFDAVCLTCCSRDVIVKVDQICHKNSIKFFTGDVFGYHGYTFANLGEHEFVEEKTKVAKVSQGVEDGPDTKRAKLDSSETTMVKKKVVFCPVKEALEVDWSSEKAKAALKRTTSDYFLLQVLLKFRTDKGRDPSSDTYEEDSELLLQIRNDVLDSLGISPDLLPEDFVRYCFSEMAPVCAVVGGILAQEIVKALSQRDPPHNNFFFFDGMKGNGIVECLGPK
Sequence of SUMO E1/E2 (Q9UBT2 whole entry): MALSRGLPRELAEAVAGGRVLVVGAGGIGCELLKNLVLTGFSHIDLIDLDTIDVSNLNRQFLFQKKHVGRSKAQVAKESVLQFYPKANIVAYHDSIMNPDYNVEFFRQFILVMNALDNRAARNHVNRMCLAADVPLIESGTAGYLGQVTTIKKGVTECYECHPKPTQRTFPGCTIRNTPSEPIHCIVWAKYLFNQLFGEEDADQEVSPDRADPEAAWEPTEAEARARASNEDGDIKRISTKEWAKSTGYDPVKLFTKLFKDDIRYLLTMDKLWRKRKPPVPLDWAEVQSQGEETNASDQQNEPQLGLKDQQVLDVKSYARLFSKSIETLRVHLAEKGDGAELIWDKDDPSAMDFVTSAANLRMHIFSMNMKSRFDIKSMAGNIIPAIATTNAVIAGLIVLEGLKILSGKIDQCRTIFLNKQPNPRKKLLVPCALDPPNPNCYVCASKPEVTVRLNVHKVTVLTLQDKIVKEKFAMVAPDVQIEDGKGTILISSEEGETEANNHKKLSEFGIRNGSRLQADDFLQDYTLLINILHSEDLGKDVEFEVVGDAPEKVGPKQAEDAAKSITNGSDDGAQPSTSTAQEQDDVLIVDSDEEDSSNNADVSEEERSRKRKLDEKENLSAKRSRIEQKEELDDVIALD
Sequence of SUMO E1/E2 (P63279 whole entry): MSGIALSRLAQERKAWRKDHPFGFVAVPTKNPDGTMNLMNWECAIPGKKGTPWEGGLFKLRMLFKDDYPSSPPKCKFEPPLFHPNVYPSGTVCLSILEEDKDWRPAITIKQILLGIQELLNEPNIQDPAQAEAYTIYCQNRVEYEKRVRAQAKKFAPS

Collagenase 3 = Collagenase 3 (Homo sapiens, UniProt P45452); assay: MMP13 inhibition and MMP selectivity, late-stage follow-up, selectivity assay for MMP13 inhibitor project, biochemical, probe development, late stage results, panel member MMP-13 [IC50 Assay] (AID 2067)
Neutrophil collagenase = Neutrophil collagenase (Homo sapiens, UniProt P22894); assay: MMP13 inhibition and MMP selectivity, late-stage follow-up, selectivity assay for MMP13 inhibitor project, biochemical, probe development, late stage results, panel member MMP-8 [IC50 Assay] (AID 2067)
Sequence of Neutrophil collagenase (P22894 whole entry): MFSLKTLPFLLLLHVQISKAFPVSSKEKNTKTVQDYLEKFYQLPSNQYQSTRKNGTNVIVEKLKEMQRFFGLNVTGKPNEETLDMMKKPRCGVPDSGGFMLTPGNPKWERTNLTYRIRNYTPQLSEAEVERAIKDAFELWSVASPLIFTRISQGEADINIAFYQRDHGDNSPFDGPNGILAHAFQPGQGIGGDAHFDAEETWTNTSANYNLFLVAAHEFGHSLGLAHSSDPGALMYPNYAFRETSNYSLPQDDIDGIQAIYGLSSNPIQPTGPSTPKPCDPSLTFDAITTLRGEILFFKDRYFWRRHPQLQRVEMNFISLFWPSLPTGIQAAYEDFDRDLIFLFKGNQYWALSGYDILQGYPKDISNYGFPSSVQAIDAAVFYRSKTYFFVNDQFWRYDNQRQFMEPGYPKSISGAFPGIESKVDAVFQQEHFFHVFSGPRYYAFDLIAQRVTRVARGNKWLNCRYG

## CCc1ccc(-c2nc(CN3CCCC(C(=O)NCCc4ccc(OC)c(OC)c4)C3)c(C)o2)cc1 (stereo not drawn)
[1]
  EC50: 0.161 µM (active)
[2]
  EC50: > 60 µM (not active)
[3]
  EC50: 5.02 µM (active)
[4]
  EC50: 3.95 µM (active)

## O=C(C1=NN(c2ccccc2)C2C(=O)N(c3ccccc3)C(=O)C12)c1ccccc1 (stereo not drawn)
[5]
  EC50: 14.6 µM (active)
Caspase-7
  EC50: > 85.3 µM (inactive)
[6]
  IC50: > 55.7 µM (not active)
Insulin-degrading enzyme
  IC50: 25.5 µM (not active)
Caspase-3
  EC50: > 85.3 µM (inactive)

## NC(=O)c1cn(C2OC(CO)C(O)C2O)c2ncnc(N)c12 (stereo not drawn)
BJ [7]
  EC50: 0.874 µM (active)
BJ [8]
  EC50: 1.27 µM (inconclusive)
[9]
  EC50: > 55.7 µM (not active)
[10]
  EC50: > 55.7 µM (not active)
Galanin receptor type 3
  IC50: 1.31 µM (active)
cells
  EC50: > 29.9 µM (inactive)
[11]
  AC50: 14.6 µM (active)
BJ [12]
  EC50: 1.19 µM (inconclusive)
[13]
  EC50: 1.09 µM (active)

## O=C(COC(=O)c1cc(-c2ccco2)nc2ccccc12)NC(=O)c1ccccc1
[14]
  IC50: 21.9 µM (active)
[15]
  IC50: 8.83 µM (active)
SUMO E1/E2
  IC50: 2.18 µM (active)

## O=c1[nH]c(SCc2ccc(OC(F)(F)F)cc2)nc2c1CCC2
Collagenase 3
  IC50: > 39.8 µM (active)
Neutrophil collagenase
  IC50: > 39.8 µM (inactive)
